Measurements reported in PMC7730206, “2-Deoxy-D-glucose Promotes Buforin IIb-Induced Cytotoxicity in Prostate Cancer DU145 Cells and Xenograft Tumors” (Molecules, 2020).

Tests used:
Assay type in all cases: cell-based, human
DU145 cells [1] = assay: Cell cycle analysis (PI staining, FACS); conditions: 2-DG 2 mM, buforin IIb 2 μM, alone or in combination, 24 h
Experimental: Cell cycle analysis was performed using the Cell Cycle Analysis Kit. Briefly, cells were seeded into 6-well culture plates at a density of 3 × 10^5 cells/mL. After treatment with 2-DG (2 mM) and buforin IIb (2 μM) alone or in combination for 24 h, cells were digested by 0.25% trypsin without EDTA, fixed in 70% cold ethanol for 5 h at 4 °C, and then stained with propidium iodide (PI) and RNase A solution for 30 min at 37 °C in the dark. The cell distribution across the cell cycle was analyzed with a FACS Vantage SE flow cytometer.

[2] = test system: Bcl-2, Bak, Bax, cytochrome c, caspase 3 in DU145 cells; assay: Western blot of apoptosis-related proteins; conditions: 2 mM 2-DG 12 h and/or 2 μM buforin IIb 12 h
Experimental: DU145 cells were treated with 2-DG (2 mM) for 12 h, then treated with or without buforin IIb (2 μM) for 12 h. The cells were lysed on ice for 30 min in RIPA lysis buffer, and the lysates were centrifuged at 12,000× g for 10 min at 4 °C. The supernatant was collected, separated by 12% sodium dodecyl sulfate-polyacrylamide gel electrophoresis (SDS-PAGE), and transferred onto a polyvinylidene difluoride (PVDF) membrane. After blocking with 5% skim milk in PBS, the PVDF membrane incubated with primary antibodies against Bcl-2, Bak, Bax, cytochrome C, caspase 3, and β-actin overnight at 4 °C, followed by incubating with appropriate secondary antibodies. After washing, bands were visualized by using ECL detection system according to the manufacturer’s instructions.

DU145 cells [3] = assay: Intracellular ATP level; conditions: 2 mM 2-DG 24 h, 2 μM buforin IIb 12 h
Experimental: (§1) Cells were seeded at approximately 3 × 10^5 cells/mL in 6-well plates and treated with 2-DG (2 mM) alone for 24 h and buforin IIb alone (2 μM) or both for 12 h. After centrifugation, the culture medium and cells were collected to estimate the L-lactate and ATP content using the ATP content assay kit (Solarbio, Beijing, China) and L-lactate assay kit (Jiancheng Bioengineering, Nanjing, China) according to the manufacturer’s protocol. […] The collected cells were subjected to ultrasonic disruption and centrifuged at 8000× g for 10 min at 4 °C to collect the supernatant for intracellular ATP detection. Creatine kinase catalyzes the production of phosphocreatine from creatine and ATP. The level of ATP was determined by detecting the phosphocreatine content though the colorimetric method of phosphomolybdic acid at 700 nm. Six replicates were performed for each group, and the experiments were repeated three times to confirm the results.

DU145 cells [4] = assay: L-lactate production; conditions: 2 mM 2-DG 24 h; 2 μM buforin IIb 12 h; combination: 2-DG pretreatment 12 h then buforin IIb 12 h; lactate in medium
Experimental: as §1

DU145 cells [5] = assay: EdU incorporation assay (cell proliferation); conditions: 2-DG 2 mM, buforin IIb 2 μM, alone or in combination, 24 h
Experimental: Cultured cells were plated in 12-well plates at a density of 2 × 10^5 cells/mL and treated with buforin IIb (2 μM) and 2-DG (2 mM) alone and in combination for 24 h. Cells were then incubated with in medium containing EdU (10 μM) for 2 h, fixed with 4% paraformaldehyde for 15 min, and permeabilized with 0.2% Triton X-100 for 15 min. Cells were then incubated with EdU staining cocktail at room temperature in the dark for 30 min. After washing with PBS, cell nuclei were stained with DAPI at a concentration of 10 μg/mL for 15 min. More than five images of each well were acquired by fluorescence microscope, and the percentage of EdU-positive cells was evaluated.

DU145 cells [6] = assay: Mitochondrial membrane potential (JC-1, flow cytometry); conditions: 2 mM 2-DG; 2 μM buforin IIb 12 h
Experimental: The JC-1 Assay Kit was used to measure changes in mitochondrial membrane potential. Briefly, cells (5 × 10^5 cells/mL) were seeded into 6-well plates and treated with 2-DG (2 mM) for 12 h, then treated with or without buforin IIb (2 μM) for 12 h. DU145 cells were collected, washed in PBS, and incubated with 10 μg/mL JC-1 for 30 min. The cells were then collected by centrifugation and analyzed by flow cytometry. The red fluorescence indicated JC-1 aggregates, whereas green fluorescence indicated JC-1 monomers. Aggregated JC-1 (red fluorescence) indicates a high membrane potential, whereas monomer JC-1 (green fluorescence) indicates a membrane collapse.

[7] = test system: prostate cancer cell line DU145; assay: CCK-8 cell viability assay, DU145; conditions: 2 μM buforin IIb alone or with 2 mM 2-DG, 24 h, CCK-8
Experimental: Cells were seeded in 96-well plates at a density of 1 × 10^5 cells/mL in medium, and then treated with different concentrations of buforin IIb and 2-DG alone or in combination for 24 h. After treatment, 10 μL CCK-8 was added to each well, and the plates were incubated in the dark at 37 °C for 2 h. Absorbance at 450 nm was measured using a […]1 multifunction microplate reader. Each experiment was performed in triplicate, and cell viability was expressed as a percentage of the control. The drug-drug interactions between buforin IIb and 2-DG were evaluated using the combination index (CI) described by Chou and Talalay, and calculated using Compusyn software (Biosoft). CI values < 1, = 1 or > 1 indicated synergy, additivity, or antagonism, respectively.

DU145 cells [8] = assay: Annexin V-FITC/PI apoptosis flow cytometry; conditions: 2 μM buforin IIb alone or with 2 mM 2-DG, 24 h; Annexin V/PI FACS
Experimental: DU145 cells were seeded (3 × 10^5 cells/mL) into 6-well plates and treated with buforin IIb (2 μM) and 2-DG (2 mM) alone and in combination for 24 h. After collecting and washing with PBS, the cells were re-suspended in 500 μL of binding buffer, stained with FITC-conjugated Annexin V and PI, and incubated on ice in the dark for 10 min. The stained cells were analyzed by flow cytometry, and the percentage of apoptotic cells was calculated using Cell Quest software.

Buforin IIb
S/G2 population (DU145 cells [1]; PBS control 46.23%): 30.06%
G0/G1 population (%G1) (DU145 cells [1]; PBS control 53.7%): 69.94%
Bcl-2 family protein levels [2]: downregulated Bcl-2 and upregulated Bak
cytochrome c and caspase 3 [2]: increased cytochrome c levels and induced the cleavage of procaspase 3
ATP levels, % of control levels (DU145 cells [3]): 30%
lactate production, % of that in the control (DU145 cells [4]): ~80%
inhibition of cell proliferation (rate) (DU145 cells [5]): 53%
effect on Δψm (JC-1 green/red fluorescence ratio, words) (DU145 cells [6]): increased the green/red fluorescence ratio
inhibition of DU145 cell viability [7]: 25%
apoptosis (DU145 cells [8]): 21.45%
